Test results published in the supplement of paper PMC10307832.

Tests used:
Experiment in all cases: relative viability (nuclei count vs DMSO), 5 days (fraction); higher = more cells survive
Sulindac + Palbociclib = compound: CC1=C(CC(=O)O)c2cc(F)ccc2/C1=C\c1ccc([S+](C)[O-])cc1 [Sulindac] + CC(=O)c1c(C)c2cnc(Nc3ccc(N4CCNCC4)cn3)nc2n(C2CCCC2)c1=O [Palbociclib] (partner 0.5 µM)
Method in brief: (§1)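 Values are medians from duplicate plates. Each reflects relative viability, defined as the nuclei count of treated wells over that of vehicle wells. Lung cancer cell lines in 1536-well plates were pin-tool dosed one day after seeding with one drug alone or with a fixed anchor-drug dose plus five library-drug doses (not always all listed) in √10 steps, then fixed, stained and imaged at 4× after 5 days.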

[1] = compound: CN[C@@H]1C[C@H]2O[C@@](C)([C@@H]1OC)n1c3ccccc3c3c4c(c5c6ccccc6n2c5c31)C(=O)NC4 [Staurosporine] + CC(C)C[C@H](NC(=O)[C@H](Cc1ccccc1)NC(=O)c1cnccn1)B(O)O [Bortezomib] (partner 0.002 µM)
Method in brief: as §1

[2] = compound: CN[C@@H]1C[C@H]2O[C@@](C)([C@@H]1OC)n1c3ccccc3c3c4c(c5c6ccccc6n2c5c31)C(=O)NC4 [Staurosporine] + COc1cc2c(Oc3ccc(NC(=O)C4(C(=O)Nc5ccc(F)cc5)CC4)cc3F)ccnc2cc1OCCCN1CCOCC1 [Foretinib] (partner 0.25 µM)
Method in brief: as §1

[3] = compound: CN[C@@H]1C[C@H]2O[C@@](C)([C@@H]1OC)n1c3ccccc3c3c4c(c5c6ccccc6n2c5c31)C(=O)NC4 [Staurosporine] + CS(=O)(=O)CCNCc1ccc(-c2ccc3ncnc(Nc4ccc(OCc5cccc(F)c5)c(Cl)c4)c3c2)o1 [Lapatinib] (partner 2 µM)
Method in brief: as §1

NCI-H1993
relative viability (Sulindac + Palbociclib; first compound 0.08 µM): 0.666 | relative viability (Sulindac + Palbociclib; first compound 0.253 µM): 0.658 | relative viability (Sulindac + Palbociclib; first compound 0.8 µM): 0.591 | relative viability (Sulindac + Palbociclib; first compound 2.53 µM): 0.727 | relative viability (Sulindac + Palbociclib; first compound 8 µM): 0.604 | relative viability ([1]; first compound 0.01581 µM): 0.44 | relative viability ([1]; first compound 0.05 µM): 0.463 | relative viability ([1]; first compound 0.1581 µM): 0.483 | relative viability ([1]; first compound 0.5 µM): 0.315 | relative viability ([2]; first compound 0.005 µM): 0.818 | relative viability ([2]; first compound 0.01581 µM): 0.701 | relative viability ([2]; first compound 0.05 µM): 0.586 | relative viability ([2]; first compound 0.1581 µM): 0.535 | relative viability ([2]; first compound 0.5 µM): 0.489 | relative viability ([3]; first compound 0.005 µM): 0.775 | relative viability ([3]; first compound 0.01581 µM): 0.536 | relative viability ([3]; first compound 0.05 µM): 0.639 | relative viability ([3]; first compound 0.1581 µM): 0.485 | relative viability ([3]; first compound 0.5 µM): 0.409

NCI-H2009
relative viability (Sulindac + Palbociclib; first compound 0.08 µM): 0.176 | relative viability (Sulindac + Palbociclib; first compound 0.253 µM): 0.209 | relative viability (Sulindac + Palbociclib; first compound 0.8 µM): 0.234 | relative viability (Sulindac + Palbociclib; first compound 2.53 µM): 0.17 | relative viability (Sulindac + Palbociclib; first compound 8 µM): 0.242 | relative viability ([1]; first compound 0.005 µM): 0.278 | relative viability ([1]; first compound 0.01581 µM): 0.147 | relative viability ([1]; first compound 0.05 µM): 0.165 | relative viability ([1]; first compound 0.1581 µM): 0.0953 | relative viability ([1]; first compound 0.5 µM): 0.0887 | relative viability ([2]; first compound 0.005 µM): 0.527 | relative viability ([2]; first compound 0.01581 µM): 0.389 | relative viability ([2]; first compound 0.05 µM): 0.212 | relative viability ([2]; first compound 0.1581 µM): 0.177 | relative viability ([2]; first compound 0.5 µM): 0.127 | relative viability ([3]; first compound 0.005 µM): 0.249 | relative viability ([3]; first compound 0.01581 µM): 0.152 | relative viability ([3]; first compound 0.05 µM): 0.251 | relative viability ([3]; first compound 0.1581 µM): 0.125 | relative viability ([3]; first compound 0.5 µM): 0.0882

NCI-H2023
relative viability (Sulindac + Palbociclib; first compound 0.08 µM): 0.387 | relative viability (Sulindac + Palbociclib; first compound 0.253 µM): 0.429 | relative viability (Sulindac + Palbociclib; first compound 0.8 µM): 0.362 | relative viability (Sulindac + Palbociclib; first compound 2.53 µM): 0.415 | relative viability (Sulindac + Palbociclib; first compound 8 µM): 0.454 | relative viability ([1]; first compound 0.005 µM): 0.612 | relative viability ([1]; first compound 0.01581 µM): 0.19 | relative viability ([1]; first compound 0.05 µM): 0.181 | relative viability ([1]; first compound 0.1581 µM): 0.0797 | relative viability ([1]; first compound 0.5 µM): 0.0526 | relative viability ([2]; first compound 0.005 µM): 0.526 | relative viability ([2]; first compound 0.05 µM): 0.174 | relative viability ([2]; first compound 0.1581 µM): 0.107 | relative viability ([2]; first compound 0.5 µM): 0.0611 | relative viability ([3]; first compound 0.005 µM): 0.509 | relative viability ([3]; first compound 0.01581 µM): 0.11 | relative viability ([3]; first compound 0.05 µM): 0.18 | relative viability ([3]; first compound 0.1581 µM): 0.0948 | relative viability ([3]; first compound 0.5 µM): 0.0518

NCI-H2085
relative viability (Sulindac + Palbociclib; first compound 0.08 µM): 0.406 | relative viability (Sulindac + Palbociclib; first compound 0.253 µM): 0.487 | relative viability (Sulindac + Palbociclib; first compound 0.8 µM): 0.497 | relative viability (Sulindac + Palbociclib; first compound 2.53 µM): 0.508 | relative viability (Sulindac + Palbociclib; first compound 8 µM): 0.429 | relative viability ([1]; first compound 0.005 µM): 0.856 | relative viability ([1]; first compound 0.01581 µM): 0.565 | relative viability ([1]; first compound 0.05 µM): 0.604 | relative viability ([1]; first compound 0.1581 µM): 0.499 | relative viability ([1]; first compound 0.5 µM): 0.402 | relative viability ([2]; first compound 0.005 µM): 0.516 | relative viability ([2]; first compound 0.01581 µM): 0.437 | relative viability ([2]; first compound 0.05 µM): 0.324 | relative viability ([2]; first compound 0.1581 µM): 0.195 | relative viability ([2]; first compound 0.5 µM): 0.26 | relative viability ([3]; first compound 0.005 µM): 0.65 | relative viability ([3]; first compound 0.01581 µM): 0.391 | relative viability ([3]; first compound 0.05 µM): 0.463 | relative viability ([3]; first compound 0.1581 µM): 0.351 | relative viability ([3]; first compound 0.5 µM): 0.243

NCI-H2087
relative viability (Sulindac + Palbociclib; first compound 0.08 µM): 0.224 | relative viability (Sulindac + Palbociclib; first compound 0.253 µM): 0.273 | relative viability (Sulindac + Palbociclib; first compound 0.8 µM): 0.228 | relative viability (Sulindac + Palbociclib; first compound 2.53 µM): 0.239 | relative viability (Sulindac + Palbociclib; first compound 8 µM): 0.224 | relative viability ([1]; first compound 0.005 µM): 0.761 | relative viability ([1]; first compound 0.01581 µM): 0.548 | relative viability ([1]; first compound 0.05 µM): 0.39 | relative viability ([1]; first compound 0.1581 µM): 0.175 | relative viability ([1]; first compound 0.5 µM): 0.113 | relative viability ([2]; first compound 0.005 µM): 0.863 | relative viability ([2]; first compound 0.01581 µM): 0.561 | relative viability ([2]; first compound 0.05 µM): 0.252 | relative viability ([2]; first compound 0.1581 µM): 0.112 | relative viability ([2]; first compound 0.5 µM): 0.0962 | relative viability ([3]; first compound 0.005 µM): 0.755 | relative viability ([3]; first compound 0.01581 µM): 0.548 | relative viability ([3]; first compound 0.05 µM): 0.427 | relative viability ([3]; first compound 0.1581 µM): 0.206 | relative viability ([3]; first compound 0.5 µM): 0.105

NCI-H2126
relative viability (Sulindac + Palbociclib; first compound 0.08 µM): 0.344 | relative viability (Sulindac + Palbociclib; first compound 0.253 µM): 0.333 | relative viability (Sulindac + Palbociclib; first compound 0.8 µM): 0.395 | relative viability (Sulindac + Palbociclib; first compound 2.53 µM): 0.372 | relative viability (Sulindac + Palbociclib; first compound 8 µM): 0.361 | relative viability ([1]; first compound 0.005 µM): 1.1 | relative viability ([1]; first compound 0.01581 µM): 0.817 | relative viability ([1]; first compound 0.05 µM): 0.777 | relative viability ([1]; first compound 0.1581 µM): 0.371 | relative viability ([1]; first compound 0.5 µM): 0.387 | relative viability ([2]; first compound 0.005 µM): 1.35 | relative viability ([2]; first compound 0.01581 µM): 0.69 | relative viability ([2]; first compound 0.05 µM): 0.634 | relative viability ([2]; first compound 0.1581 µM): 0.613 | relative viability ([2]; first compound 0.5 µM): 0.297 | relative viability ([3]; first compound 0.005 µM): 0.805 | relative viability ([3]; first compound 0.01581 µM): 0.571 | relative viability ([3]; first compound 0.05 µM): 0.505 | relative viability ([3]; first compound 0.1581 µM): 0.336 | relative viability ([3]; first compound 0.5 µM): 0.356

NCI-H2228
relative viability (Sulindac + Palbociclib; first compound 0.08 µM): 0.876 | relative viability (Sulindac + Palbociclib; first compound 0.253 µM): 0.967 | relative viability (Sulindac + Palbociclib; first compound 0.8 µM): 0.487 | relative viability (Sulindac + Palbociclib; first compound 2.53 µM): 0.864 | relative viability (Sulindac + Palbociclib; first compound 8 µM): 0.831 | relative viability ([1]; first compound 0.005 µM): 0.782 | relative viability ([1]; first compound 0.01581 µM): 0.421 | relative viability ([1]; first compound 0.05 µM): 0.419 | relative viability ([1]; first compound 0.1581 µM): 0.227 | relative viability ([1]; first compound 0.5 µM): 0.118 | relative viability ([2]; first compound 0.005 µM): 0.889 | relative viability ([2]; first compound 0.01581 µM): 0.537 | relative viability ([2]; first compound 0.05 µM): 0.317 | relative viability ([2]; first compound 0.1581 µM): 0.11 | relative viability ([2]; first compound 0.5 µM): 0.0985 | relative viability ([3]; first compound 0.005 µM): 0.88 | relative viability ([3]; first compound 0.01581 µM): 0.49 | relative viability ([3]; first compound 0.05 µM): 0.346 | relative viability ([3]; first compound 0.1581 µM): 0.137 | relative viability ([3]; first compound 0.5 µM): 0.115

NCI-H2347
relative viability (Sulindac + Palbociclib; first compound 0.08 µM): 0.42 | relative viability (Sulindac + Palbociclib; first compound 0.253 µM): 0.459 | relative viability (Sulindac + Palbociclib; first compound 0.8 µM): 0.453 | relative viability (Sulindac + Palbociclib; first compound 2.53 µM): 0.379 | relative viability (Sulindac + Palbociclib; first compound 8 µM): 0.461 | relative viability ([1]; first compound 0.005 µM): 1.21 | relative viability ([1]; first compound 0.01581 µM): 0.443 | relative viability ([1]; first compound 0.05 µM): 0.359 | relative viability ([1]; first compound 0.1581 µM): 0.413 | relative viability ([1]; first compound 0.5 µM): 0.402 | relative viability ([2]; first compound 0.005 µM): 1.04 | relative viability ([2]; first compound 0.01581 µM): 0.588 | relative viability ([2]; first compound 0.05 µM): 0.374 | relative viability ([2]; first compound 0.1581 µM): 0.289 | relative viability ([2]; first compound 0.5 µM): 0.422 | relative viability ([3]; first compound 0.005 µM): 0.457 | relative viability ([3]; first compound 0.01581 µM): 0.348 | relative viability ([3]; first compound 0.05 µM): 0.352 | relative viability ([3]; first compound 0.1581 µM): 0.319 | relative viability ([3]; first compound 0.5 µM): 0.407
